Each block holds one compound with its values, some of them ahead of it.
Key:
Format in all cases: biochemical
[1] = molecular target: T1, VGLUT2 (Rattus norvegicus, UniProt Q9JI12); experiment: Val-evoked [3H]L-glutamate uptake by proteoliposomes, […] min; settings: 10 mM Cl-, 100 uM L-glutamate, pH 7.0, 27 C
T1 sequence (Q9JI12 1-582): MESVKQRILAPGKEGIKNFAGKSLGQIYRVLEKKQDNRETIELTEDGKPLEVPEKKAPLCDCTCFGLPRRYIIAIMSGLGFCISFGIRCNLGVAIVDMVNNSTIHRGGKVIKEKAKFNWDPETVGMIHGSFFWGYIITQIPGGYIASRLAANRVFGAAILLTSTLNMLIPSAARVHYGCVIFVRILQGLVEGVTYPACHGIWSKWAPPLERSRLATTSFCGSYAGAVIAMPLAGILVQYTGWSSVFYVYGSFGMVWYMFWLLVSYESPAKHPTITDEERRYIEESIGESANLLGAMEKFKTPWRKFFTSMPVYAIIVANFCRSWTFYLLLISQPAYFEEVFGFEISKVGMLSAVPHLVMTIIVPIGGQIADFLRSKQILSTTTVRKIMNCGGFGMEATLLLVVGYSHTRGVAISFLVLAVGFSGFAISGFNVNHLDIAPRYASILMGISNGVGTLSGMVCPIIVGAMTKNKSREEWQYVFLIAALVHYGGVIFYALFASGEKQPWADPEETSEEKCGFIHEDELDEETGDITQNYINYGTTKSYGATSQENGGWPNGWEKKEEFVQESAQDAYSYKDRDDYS

[2] = molecular target: VMAT2 (Rattus norvegicus, UniProt Q01827); experiment: pH-driven [3H]serotonin uptake by proteoliposomes; settings: 10 mM Cl-, 10 uM serotonin, pH 7.0 outside; inactive
[3] = molecular target: T2, VGAT (Rattus norvegicus, UniProt O35458); experiment: GABA uptake by proteoliposomes
T2 sequence (O35458 1-525): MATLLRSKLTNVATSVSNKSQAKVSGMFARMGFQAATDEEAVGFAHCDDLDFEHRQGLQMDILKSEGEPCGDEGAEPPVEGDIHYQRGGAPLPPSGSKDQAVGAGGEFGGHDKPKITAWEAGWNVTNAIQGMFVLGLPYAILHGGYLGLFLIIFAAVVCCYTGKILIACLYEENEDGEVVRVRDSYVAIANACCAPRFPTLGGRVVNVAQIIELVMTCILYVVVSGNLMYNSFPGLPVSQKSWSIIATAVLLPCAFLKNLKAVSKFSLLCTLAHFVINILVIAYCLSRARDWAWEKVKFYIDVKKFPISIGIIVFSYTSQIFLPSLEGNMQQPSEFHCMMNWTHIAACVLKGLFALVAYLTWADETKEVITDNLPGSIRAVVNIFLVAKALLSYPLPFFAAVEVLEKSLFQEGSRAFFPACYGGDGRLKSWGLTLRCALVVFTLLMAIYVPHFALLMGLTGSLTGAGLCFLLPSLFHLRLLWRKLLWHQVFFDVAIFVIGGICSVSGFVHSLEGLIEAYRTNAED

[4] = molecular target: T1, VGLUT2; experiment: Val-evoked [3H]L-glutamate uptake by proteoliposomes, […] min
[5] = molecular target: T3, VNUT (Homo sapiens, UniProt Q9BYT1); experiment: Val-evoked […]ATP uptake by proteoliposomes; settings: 10 mM Cl-, 0.1 mM ATP, pH 7.0, 27 C; prevented by high Cl-; reversible
T3 sequence (Q9BYT1 1-436): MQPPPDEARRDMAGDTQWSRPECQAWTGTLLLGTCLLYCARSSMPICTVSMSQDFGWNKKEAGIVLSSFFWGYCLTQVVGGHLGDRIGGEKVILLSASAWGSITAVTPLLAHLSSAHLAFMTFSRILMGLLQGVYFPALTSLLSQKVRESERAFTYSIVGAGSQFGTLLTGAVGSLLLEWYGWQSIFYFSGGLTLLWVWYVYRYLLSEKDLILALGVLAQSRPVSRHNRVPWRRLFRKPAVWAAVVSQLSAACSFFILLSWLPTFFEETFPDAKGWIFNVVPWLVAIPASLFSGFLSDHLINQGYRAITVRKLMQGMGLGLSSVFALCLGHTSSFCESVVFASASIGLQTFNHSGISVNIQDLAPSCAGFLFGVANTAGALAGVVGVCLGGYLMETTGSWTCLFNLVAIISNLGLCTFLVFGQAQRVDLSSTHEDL

[6] = molecular target: T1, VGLUT2; experiment: Val-evoked [3H]L-glutamate uptake by proteoliposomes, […] min; settings: 10 mM Cl-, pH 7.0, 27 C

VMAT2, sequence (Q01827 whole entry): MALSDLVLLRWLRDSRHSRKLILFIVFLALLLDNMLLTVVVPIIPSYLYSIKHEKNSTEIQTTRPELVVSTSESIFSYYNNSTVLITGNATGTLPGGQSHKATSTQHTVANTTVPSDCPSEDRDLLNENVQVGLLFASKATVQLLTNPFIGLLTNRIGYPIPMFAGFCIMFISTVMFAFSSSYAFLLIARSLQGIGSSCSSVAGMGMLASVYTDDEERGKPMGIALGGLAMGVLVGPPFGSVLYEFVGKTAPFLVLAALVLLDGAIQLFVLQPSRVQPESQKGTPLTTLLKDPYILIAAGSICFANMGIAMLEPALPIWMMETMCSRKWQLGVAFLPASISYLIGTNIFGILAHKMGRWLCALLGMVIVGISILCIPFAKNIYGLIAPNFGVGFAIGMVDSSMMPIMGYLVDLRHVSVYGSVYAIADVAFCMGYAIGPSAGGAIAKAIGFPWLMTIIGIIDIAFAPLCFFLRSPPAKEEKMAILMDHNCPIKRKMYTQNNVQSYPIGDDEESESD

SMILES: CC(=O)C(=O)O [pyruvate]
dose-dependent inhibition [1]: pyruvate, an intermediate in the glycolytic pathway also inhibited glutamate transport

IC50 [3]: > 5000 µM
IC50 [4]: 200 µM
SMILES: CC(=O)CC(=O)O [acetoacetate]
pH-driven [3H]serotonin uptake by proteoliposomes [2]: partially purified VMAT2 was found to be entirely independent of Cl^− and acetoacetate
dose-dependent inhibition [5]: uptake of ATP by VNUT was similarly inhibited by acetoacetate

SMILES: Cc1cc(-c2ccc(/N=N/c3ccc4c(S(=O)(=O)O)cc(S(=O)(=O)O)c(N)c4c3O)c(C)c2)ccc1/N=N/c1ccc2c(S(=O)(=O)O)cc(S(=O)(=O)O)c(N)c2c1O [Evans blue]
Val-evoked [3H]L-glutamate uptake by proteoliposomes, 1 min [6]: sensitivity to Evans blue and diisothiocyanostilbene disulfonic acid (DIDS)

SMILES: C[C@@H](O)CC(=O)O [3-hydroxybutyrate]
dose-dependent inhibition [1]: ketone bodies (acetoacetate and 3-hydroxybutyrate) inhibited glutamate transport
